Source: article PMC8501799, “Constitutive signal bias mediated by the human GHRHR splice variant 1” (Proceedings of the National Academy of Sciences of the …, 2021)

Experiments:
Assay in all cases: cAMP accumulation
Type in all cases: cell-based
GHRHR Δ62 = target: T1, GHRHR Δ62 (Homo sapiens, UniProt Q02643); settings: Table S2, mean ± SEM
T1 construct: expressed in transfected cells; host or cells: HEK293T
Method: (§1) GHRH-stimulated cAMP accumulation was measured by a LANCE Ultra cAMP kit (PerkinElmer). Briefly, HEK293T cells (24 h after transfection with SV1 or GHRHR) or prostate cancer cells were digested by 0.2% (wt/vol) EDTA and washed once with Dulbecco’s phosphate-buffered saline (PBS). Cells were then resuspended with stimulation buffer (Hanks’ balanced salt solution [HBSS] supplemented with 5 mM HEPES, 0.5 mM IBMX, and 0.1% [wt/vol] bovine serum albumin [BSA], pH 7.4) to a density of 0.6 million cells per milliliter and added to 384-well white plates (3,000 cells per well). […] The reaction was stopped by adding 5 μL Eu-cAMP tracer and 5 μL ULight-anti-cAMP. After 1 h RT incubation, TR-FRET signals (excitation: 320 nm, emission: 615 and 665 nm) were measured by an Envision plate reader (PerkinElmer). cAMP concentrations were interpolated by a standard curve.
(§2) All functional study data were analyzed using Prism 7 (GraphPad) and presented as means ± SEM from at least three independent experiments. Concentration-response curves were evaluated with a three-parameter logistic equation. The significance was determined with either two-tailed Student’s t test or one-way ANOVA, and P < 0.05 is considered statistically significant.
(§3) Table S2. Effects of residue mutation or truncation in the ECD of GHRHR on GHRH-induced cAMP […]
(§4) Mutant pEC50 Emax (% WT GHRHR) expression ΔLog (τ/KA) […]
(§5) cAMP accumulation data were analyzed using a three-parameter logistic equation to determine pEC50 and Emax values. pEC50 is the negative logarithm of the molar concentration of agonist that induced half the maximal response. Emax for mutants is expressed as a percentage of the WT GHRHR. Data were analyzed by nonlinear regression using the operational model equation to determine t he logR values (logτ/KA, i.e., logarithm of the transduction ratio). τ is the effi cacy value of the agonist and was corrected by cell surface expression of the receptor. KA is dissociation constant. Changes in transduction ratio (ΔlogR) were calculated to determine the relative effectiveness of the mutants. All values are means ± S.E.M. of at le ast three ind ep en dent experiments (n = 3-5) conducted in quadruplicate. Statistical analysis was carried out by comparing the control responses in the WT GHRHR. **, P < 0.01 and ***, P < 0.001, determined by one-way

GHRHR F85A = target: T2, GHRHR F85A (Homo sapiens, UniProt Q02643, F85A); settings: Table S2, mean ± SEM
T2 construct: expressed in transfected cells; host or cells: HEK293T
T2 sequence (Q02643 23-423 F85A): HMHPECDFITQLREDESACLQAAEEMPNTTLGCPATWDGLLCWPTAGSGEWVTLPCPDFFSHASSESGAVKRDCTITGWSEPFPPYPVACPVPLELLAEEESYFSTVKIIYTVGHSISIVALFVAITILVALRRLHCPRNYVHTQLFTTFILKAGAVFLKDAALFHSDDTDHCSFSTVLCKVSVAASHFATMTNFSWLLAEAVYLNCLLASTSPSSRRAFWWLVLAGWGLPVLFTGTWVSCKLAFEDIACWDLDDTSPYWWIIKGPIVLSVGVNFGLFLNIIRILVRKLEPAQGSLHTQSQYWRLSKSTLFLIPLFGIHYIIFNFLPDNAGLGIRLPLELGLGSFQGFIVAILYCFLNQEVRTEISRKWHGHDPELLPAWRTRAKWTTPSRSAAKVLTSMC
Method: as §1, §2, §3, §4, §5

GHRHR Δ42 = target: T3, GHRHR Δ42 (Homo sapiens, UniProt Q02643); settings: Table S2, mean ± SEM
T3 construct: expressed in transfected cells; host or cells: HEK293T
T3 sequence (Q02643 43-423 limits assumed, stated change not applied): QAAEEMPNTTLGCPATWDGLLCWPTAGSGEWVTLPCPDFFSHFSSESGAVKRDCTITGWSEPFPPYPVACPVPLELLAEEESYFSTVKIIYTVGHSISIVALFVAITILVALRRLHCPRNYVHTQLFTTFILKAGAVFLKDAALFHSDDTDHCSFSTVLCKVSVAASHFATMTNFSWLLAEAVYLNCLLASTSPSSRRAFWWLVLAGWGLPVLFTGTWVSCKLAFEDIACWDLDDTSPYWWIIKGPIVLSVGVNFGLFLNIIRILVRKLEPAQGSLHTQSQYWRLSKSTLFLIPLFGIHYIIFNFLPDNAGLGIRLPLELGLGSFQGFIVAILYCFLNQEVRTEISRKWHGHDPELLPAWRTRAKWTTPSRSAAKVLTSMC
Method: as §1, §2, §3, §4, §5

GHRHR Δ92 = target: T4, GHRHR Δ92 (Homo sapiens, UniProt Q02643); settings: Table S2, mean ± SEM
T4 construct: expressed in transfected cells; host or cells: HEK293T
Method: as §1, §2, §3, §4, §5

GHRHR Δ102 = target: T5, GHRHR Δ102 (Homo sapiens, UniProt Q02643); settings: Table S2, mean ± SEM
T5 construct: expressed in transfected cells; host or cells: HEK293T
Method: as §1, §2, §3, §4, §5

GHRHR Δ89 = target: T6, GHRHR Δ89 (Homo sapiens, UniProt Q02643)
T6 construct: expressed in transfected cells; host or cells: HEK293T
T6 sequence (Q02643 90-423): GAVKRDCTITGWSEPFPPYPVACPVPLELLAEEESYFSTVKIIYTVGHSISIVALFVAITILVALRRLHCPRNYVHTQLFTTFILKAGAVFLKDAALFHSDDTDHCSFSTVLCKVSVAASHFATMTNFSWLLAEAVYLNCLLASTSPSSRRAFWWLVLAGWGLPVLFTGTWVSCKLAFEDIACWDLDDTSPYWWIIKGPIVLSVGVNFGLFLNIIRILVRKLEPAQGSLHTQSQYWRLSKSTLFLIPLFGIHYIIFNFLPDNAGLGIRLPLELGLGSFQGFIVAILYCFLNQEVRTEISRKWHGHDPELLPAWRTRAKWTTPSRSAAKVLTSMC
Method: as §1, §2, §3, §4, §5

[1] = target: T7, GHRHR L34A-L62A-F82A-F85A (Homo sapiens, UniProt Q02643, F82A/F85A/L34A/L62A); settings: Table S2, mean ± SEM
T7 construct: expressed in transfected cells; host or cells: HEK293T
T7 sequence (Q02643 23-423 L34A/L62A/F82A/F85A): as the sequence (Q02643 23-423 F85A) above, with L12A, L40A, F60A counted along it
Method: as §1, §2, §3, §4, §5

GHRHR Δ112 = target: T8, GHRHR Δ112 (Homo sapiens, UniProt Q02643); settings: Table S2, mean ± SEM
T8 construct: expressed in transfected cells; host or cells: HEK293T
Method: as §1, §2, §3, §4, §5

GHRHR Δ72 = target: T9, GHRHR Δ72 (Homo sapiens, UniProt Q02643); settings: Table S2, mean ± SEM
T9 construct: expressed in transfected cells; host or cells: HEK293T
T9 sequence (Q02643 73-423 limits assumed, stated change not applied): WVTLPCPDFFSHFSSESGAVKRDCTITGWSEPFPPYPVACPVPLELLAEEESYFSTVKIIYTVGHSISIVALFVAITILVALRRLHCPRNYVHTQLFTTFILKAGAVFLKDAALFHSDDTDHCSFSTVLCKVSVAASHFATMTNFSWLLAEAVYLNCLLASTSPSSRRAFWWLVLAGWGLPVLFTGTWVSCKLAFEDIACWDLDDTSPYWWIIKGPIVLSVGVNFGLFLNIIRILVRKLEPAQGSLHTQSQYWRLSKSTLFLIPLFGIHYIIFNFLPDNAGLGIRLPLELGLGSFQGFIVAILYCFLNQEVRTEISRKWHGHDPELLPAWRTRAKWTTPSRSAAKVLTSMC
Method: as §1, §2, §3, §4, §5

GHRHR Δ82 = target: T10, GHRHR Δ82 (Homo sapiens, UniProt Q02643); settings: Table S2, mean ± SEM
T10 construct: expressed in transfected cells; host or cells: HEK293T
T10 sequence (Q02643 83-423 limits assumed, stated change not applied): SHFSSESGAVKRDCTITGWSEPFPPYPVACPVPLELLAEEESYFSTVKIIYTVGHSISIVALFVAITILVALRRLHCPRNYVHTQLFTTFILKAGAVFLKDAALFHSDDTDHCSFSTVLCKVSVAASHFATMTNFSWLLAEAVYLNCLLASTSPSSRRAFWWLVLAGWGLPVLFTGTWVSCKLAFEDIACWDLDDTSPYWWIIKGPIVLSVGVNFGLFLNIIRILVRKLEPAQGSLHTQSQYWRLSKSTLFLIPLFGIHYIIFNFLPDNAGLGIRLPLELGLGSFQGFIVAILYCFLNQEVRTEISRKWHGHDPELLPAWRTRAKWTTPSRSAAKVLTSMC
Method: as §1, §2, §3, §4, §5

GHRHR L62A = target: T11, GHRHR L62A (Homo sapiens, UniProt Q02643, L62A); settings: Table S2, mean ± SEM
T11 construct: expressed in transfected cells; host or cells: HEK293T
T11 sequence (Q02643 23-423 L62A): as the sequence (Q02643 23-423 F85A) above, with L40A, A63F counted along it
Method: as §1, §2, §3, §4, §5

[2] = HEK-293T, HEK293T, n = 3-5 in quadruplicate
[3] = operational model, τ corrected by cell surface expression, relative to WT GHRHR

T1 sequence (Q02643 63-423 limits assumed, stated change not applied): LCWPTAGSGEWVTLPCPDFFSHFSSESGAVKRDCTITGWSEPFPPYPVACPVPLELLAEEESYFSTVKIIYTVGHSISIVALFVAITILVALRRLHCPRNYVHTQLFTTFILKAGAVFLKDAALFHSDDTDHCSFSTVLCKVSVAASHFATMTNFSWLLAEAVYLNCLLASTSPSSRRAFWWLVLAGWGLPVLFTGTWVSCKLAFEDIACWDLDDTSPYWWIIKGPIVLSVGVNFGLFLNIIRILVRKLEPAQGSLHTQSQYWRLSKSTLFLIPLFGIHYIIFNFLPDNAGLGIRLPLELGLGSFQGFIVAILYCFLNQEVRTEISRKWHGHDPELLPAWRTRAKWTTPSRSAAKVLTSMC

`CC[C@H](C)[C@H](NC(=O)[C@H](C)NC(=O)[C@H](CC(=O)O)NC(=O)[C@H](C)NC(=O)[C@@H](N)Cc1ccc(O)cc1)C(=O)N[C@@H](Cc1ccccc1)C(=O)N[C@H](C(=O)N[C@@H](CC(N)=O)C(=O)N[C@@H](CO)C(=O)N[C@@H](Cc1ccc(O)cc1)C(=O)N[C@@H](CCCNC(=N)N)C(=O)N[C@@H](CCCCN)C(=O)N[C@H](C(=O)N[C@@H](CC(C)C)C(=O)NCC(=O)N[C@@H](CCC(N)=O)C(=O)N[C@@H](CC(C)C)C(=O)N[C@@H](CO)C(=O)N[C@@H](C)C(=O)N[C@@H](CCCNC(=N)N)C(=O)N[C@@H](CCCCN)C(=O)N[C@@H](CC(C)C)C(=O)N[C@@H](CC(C)C)C(=O)N[C@@H](CCC(N)=O)C(=O)N[C@@H](CC(=O)O)C(=O)N[C@H](C(=O)N[C@@H](CCSC)C(=O)N[C@@H](CO)C(=O)N[C@@H](CCCNC(=N)N)C(=O)N[C@@H](CCC(N)=O)C(=O)N[C@@H](CCC(N)=O)C(=O)NCC(=O)N[C@@H](CCC(=O)O)C(=O)N[C@@H](CO)C(=O)N[C@@H](CC(N)=O)C(=O)N[C@@H](CCC(N)=O)C(=O)N[C@@H](CCC(=O)O)C(=O)N[C@@H](CCCNC(=N)N)C(=O)NCC(=O)N[C@@H](C)C(=O)N[C@@H](CCCNC(=N)N)C(=O)N[C@@H](C)C(=O)N[C@@H](CCCNC(=N)N)C(=O)N[C@@H](CC(C)C)C(N)=O)[C@@H](C)CC)C(C)C)[C@@H](C)O` [GHRH, growth hormone–releasing hormone] was tested. Which Emax (GHRHR Δ62; [2]) did it give?
Its Emax is 104 ± 2.19%.

And the “ΔLog (τ/KA)” value (GHRHR Δ62; [3])?
The value was -3.05 ± 0.03.

And the Emax (GHRHR F85A; [2])?
The Emax was 100 ± 1.69%.

What about the “ΔLog (τ/KA)” value (GHRHR F85A; [3]) of the same molecule?
Its value is -0.27 ± 0.04.

What about the Emax (GHRHR Δ42; [2]) of the same molecule?
Its Emax is 104 ± 1.53%.

And the “ΔLog (τ/KA)” value (GHRHR Δ42; [3])?
Its value is -2.86 ± 0.02.

And the Emax (GHRHR Δ92; [2])?
The Emax was 106 ± 2.38%.

And the “ΔLog (τ/KA)” value (GHRHR Δ92; [3])?
Its value is -3.78 ± 0.03.

What about the Emax (GHRHR Δ102; [2]) of the same molecule?
Its Emax is 107 ± 2.15%.

And the “ΔLog (τ/KA)” value (GHRHR Δ102; [3])?
Its value is -3.55 ± 0.02.

What about the “cAMP responses after removal of the N-terminal 89 residues” value (GHRHR Δ89; HEK293T, Fig. 1B) of the same molecule?
The value was “diminished cAMP responses”.

What about the Emax (GHRHR Δ89; HEK-293T, Table S2, HEK293T, mean ± SEM, n = 3-5 in quadruplicate) of the same molecule?
Its Emax is 106 ± 2.48%.

What about the “ΔLog (τ/KA)” value (GHRHR Δ89; Table S2, operational model, τ corrected by cell surface expression, relative to WT GHRHR, mean ± SEM) of the same molecule?
The value was -3.28 ± 0.03.

What about the Emax [1, 2] of the same molecule?
Its Emax is 105 ± 5.52%.

What about the “ΔLog (τ/KA)” value [1, 3] of the same molecule?
The value was -4.07 ± 0.04.

And the Emax (GHRHR Δ112; [2])?
Its Emax is 106 ± 2.34%.

What about the “ΔLog (τ/KA)” value (GHRHR Δ112; [3]) of the same molecule?
The value was -3.65 ± 0.02.

What about the Emax (GHRHR Δ72; [2]) of the same molecule?
Its Emax is 104 ± 2.57%.

And the “ΔLog (τ/KA)” value (GHRHR Δ72; [3])?
Its value is -2.98 ± 0.04.

And the Emax (GHRHR Δ82; [2])?
Its Emax is 104 ± 2.51%.

And the “ΔLog (τ/KA)” value (GHRHR Δ82; [3])?
Its value is -3.14 ± 0.03.

And the Emax (GHRHR L62A; [2])?
Its Emax is 98 ± 2%.

What about the “ΔLog (τ/KA)” value (GHRHR L62A; [3]) of the same molecule?
The value was -1.03 ± 0.04.
